Measured values from patent EP0157637A2, “Heterocyclic compounds” (THE WELLCOME FOUNDATION LIMITED, priority 1984, dated 1985).
Like-named read-outs stand apart in the source and are kept apart here.

Columns and labels:
Eimeria tenella = assay: in vivo anticoccidial activity against Eimeria tenella; details: Concentration 400 ppm, cleared/total
Method: The in vivo activity of two compounds of the present invention and a compound disclosed in US Patent No. 4189485 were determined against Eimeria tenella by the method disclosed in European Patent No. 0021293.

rats = assay: maximal electroshock test (MES), anticonvulsant activity in rats; type: in vivo; details: for ED50: Rattus norvegicus
Method: The anticonvulsant activity of certain compounds of the present invention was determined by a standard maximal electroshock test (MES); that described by L.A. Woodbury and V.D. Davenport, Arch. Int. Pharmacodyn., 1952, 92, 97.

LD50 in the rat = details: in vivo, po, approximate
[1] = ip, rats, i.p., read-out: MES ED50 (mg/kg) i.p.
[2] = po, rats, p.o., read-out: MES ED50 (mg/kg) p.o.

Compound	ED50 (rats; [1]) [mg/kg]	ED50 (rats; [2]) [mg/kg]	other results
CNc1ncnc2c1ncn2Cc1ccccc1F [Compound 1, 9-(2-Fluorobenzyl)-6-methylamino-9H-purine]			E.tenella cleared (Eimeria tenella): 2/5; ED50 (rats; ip, read-out: MES ED50 (mg/kg) i.p.): 1.7 ± 0.4 mg/kg; ED50 (rats; po, read-out: MES ED50 (mg/kg) p.o.): 2.5 ± 0.4 mg/kg; LD50 (LD50 in the rat): ~1000 mg/kg
CN(C)c1ncnc2c1ncn2Cc1ccccc1F [Compound 2, 6-dimethylamino-9-(2-fluorobenzyl)-9H-purine]	8.8 ± 1.7		E.tenella cleared (Eimeria tenella): 0/5
Fc1ccccc1Cn1cnc2c(NC3CC3)ncnc21 [Compound 3, 6-cyclopropylamino-9-(2-fluorobenzyl)-9H-purine]	5 ± 0.4	7.8 ± 0.8	
CCNc1ncnc2c1ncn2Cc1ccccc1F [Compound 4, 6-ethylamino-9-(2-fluorobenzyl)-9H-purine]	4.9 ± 0.5		
CC(C)Nc1ncnc2c1ncn2Cc1ccccc1F [Compound 5, 9-(2-fluorobenzyl)-6-isopropylamino-9H-purine]	5.8 ± 0.6		
Fc1ccccc1Cn1cnc2c(NCC3CC3)ncnc21 [Compound 6, 6-cyclopropylmethylamino-9-(2-fluorobenzyl)-9H-purine]	4.3 ± 0.9	6.3 ± 1	
CN(c1ncnc2c1ncn2Cc1ccccc1F)C1CC1 [Compound 7, 9-(2-fluorobenzyl)-6-(N-methylcyclopropylamino)-9H-purine]	6.8 ± 0.8		
CCN(C)c1ncnc2c1ncn2Cc1ccccc1F [Compound 8]	2.9 ± 0.3	6 ± 0.5	
CCCNc1ncnc2c1ncn2Cc1ccccc1F [Compound 9, 9-(2-fluorobenzyl)-6-propylamino-9H-purine]	5.1 ± 0.5	4.6 ± 1	
CCN(CC)c1ncnc2c1ncn2Cc1ccccc1F [Compound 10, 6-diethylamino-9-(2-fluorobenzyl)-9H-purine]	4.2 ± 0.5	5.9 ± 0.6	
Fc1ccccc1Cn1cnc2c(NC3CCCC3)ncnc21 [Compound 11, 6-cyclopentylamino-9-(2-fluorobenzyl)-9H-purine]	8 ± 1		
Fc1cccc(F)c1Cn1cnc2c(NC3CC3)ncnc21 [Compound 12, 6-cyclopropylamino-9-(2,6-difluorobenzyl)-9H-purine]	4	12.5	
CNc1ncnc2c1ncn2Cc1c(F)cccc1F [Compound 13]	2		
CN(C)c1ncnc2c1ncn2Cc1c(F)cccc1F [Compound 14, ^g-(2,6-difluorobenzyl)-6-dimethylamino-9H-purine]	2.2 ± 0.2	3.8 ± 0.6	
CNc1ncnc2c1ncn2Cc1cc(F)ccc1F [Compound 15, 9-(2,5-Difluorobenzyl)-6-methylamino-9H-purine]	4 ± 0.6	7 ± 1	
Nc1ncnc2c1ncn2Cc1ccccc1F [Compound 16, 6-Amino-9-(2-fluorobenzyl)-9H-purine]	2.4 ± 0.6	2.2 ± 0.4	
Nc1ncnc2c1ncn2Cc1c(F)cccc1F [Compound 27, 6-amino-9-(2,6-difluorobenzyl)-9H-purine]	9		
Nc1ncnc2c1ncn2Cc1cc(F)ccc1F [Compound 28, 6-amino-9-(2,5-difluorobenzyl)-9H-purine]	5		
OCNc1ncnc2c1ncn2Cc1ccccc1F [Compound 29, 9-(2-Fluorobenzyl)-6-hydroxymethylamino-9H-purine]	4		
COCN(C)c1ncnc2c1ncn2Cc1ccccc1F [Compound 30, 9-(2-Fluorobenzyl)-6-(N-methoxymethyl-N-methylamino)-9H-purine]	5		
COCNc1ncnc2c1ncn2Cc1ccccc1F [Compound 31, 9-(2-Fluorobenzyl)-6-methoxymethylamino-9H-purine]			MES, % at 6.25mg/kg (rats; rats, 6.25mg/kg, printed in the i.p. column in place of an ED50): (17% at 6.25mg/kg)
O=C1NC(=O)C(c2ccccc2)(c2ccccc2)N1 [phenytoin (Dilantin), 5,5-diphenylhydantoin, reference compound]	10 ± 2	20 ± 3	
